# Data published in the supplement of paper PMC10307832.
# Compound: C1=CC2=C(C=C(C(=C2N=C1)O)N=NC3=CC4=C(C=C3)C=C(C=C4)S(=O)(=O)O)S(=O)(=O)O + O=C(CCCCCCC(=O)Nc1ccccc1)NO [Vorinostat] (partner 1 µM)
# Assay: relative viability (nuclei count vs DMSO), 5 days (fraction); higher = more cells survive
# Details: first compound 0.08 µM
# Summary of the method: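 Nuclei were stained with Hoechst during a one-step fixation (final 0.05% Triton X-100, 1% formaldehyde, 1 ug/ml Hoechst) carried out 5 days after dosing, then counted on 4× images. The cells, lung cancer lines in 1536-well plates, had been dosed by pin tool the day after seeding with one drug alone or a fixed anchor-drug dose plus five library-drug doses (not always all listed) in √10 steps. Relative viability is the nuclei count in treated wells divided by that in vehicle wells, and each value is the median of duplicate plates.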
row,Cell Line,relative viability
1,NCI-H2342,0.834
2,NCI-H727,1.13
3,NCI-H1650,0.577
4,NCI-H1993,0.844
5,SW 1573,0.92
6,NCI-H838,0.755
7,LCLC-103H,0.797
8,NCI-H520,0.66
9,NCI-H2126,0.899
10,EMC-BAC-2,0.377
11,NCI-H2085,0.85
12,HCC-366,0.442
13,NCI-H1666,1.05
14,NCI-H596,0.544
15,LK-2,0.308
16,NCI-H2087,0.69
17,SK-MES-1,1.16

row,Cell Line,relative viability
1,H3255,0.84
2,COR-L23,0.484
3,COR-L 105,0.852
4,IA-LM,1.09
5,LOU-NH91,1
6,ChaGo-K-1,0.827
7,NCI-H2170,0.975
8,NCI-H2405,1.01
9,HOP-62,0.438
10,HCC-44,1.22
11,NCI-H522,0.98
12,LU99A,0.534
13,BEN,0.562
14,HARA,0.631
15,SW 900,0.624
16,HCC-78,0.437

# Same assay, conditions: first compound 0.253 µM
row,Cell Line,relative viability
1,NCI-H2342,0.709
2,NCI-H727,1.26
3,NCI-H1650,0.447
4,NCI-H1993,0.866
5,SW 1573,0.915
6,NCI-H838,0.681
7,LCLC-103H,0.784
8,NCI-H520,0.662
9,NCI-H2126,0.75
10,EMC-BAC-2,0.458
11,NCI-H2085,0.775
12,HCC-366,0.463
13,NCI-H1666,0.98
14,NCI-H596,0.645
15,LK-2,0.333
16,NCI-H2087,0.804
17,NCI-H1648,0.825

row,Cell Line,relative viability
1,SK-MES-1,1.12
2,H3255,0.828
3,COR-L23,0.396
4,COR-L 105,0.86
5,IA-LM,0.95
6,LOU-NH91,0.89
7,ChaGo-K-1,0.812
8,NCI-H2170,0.811
9,NCI-H2405,0.937
10,HOP-62,0.693
11,HCC-44,1.08
12,NCI-H522,1.01
13,LU99A,0.445
14,BEN,0.695
15,HARA,0.383
16,SW 900,0.399
17,HCC-78,0.471

# Same assay, conditions: first compound 0.8 µM
row,Cell Line,relative viability
1,NCI-H2342,0.72
2,NCI-H727,1.09
3,NCI-H1650,0.594
4,NCI-H1993,0.798
5,SW 1573,0.531
6,NCI-H838,0.712
7,LCLC-103H,0.827
8,NCI-H520,0.761
9,NCI-H2126,0.737
10,EMC-BAC-2,0.467
11,NCI-H2085,0.717
12,HCC-366,0.392
13,NCI-H1666,1.03
14,NCI-H596,0.545
15,LK-2,0.292
16,NCI-H2087,0.795
17,SK-MES-1,0.985

row,Cell Line,relative viability
1,H3255,0.803
2,COR-L23,0.418
3,COR-L 105,0.742
4,IA-LM,0.97
5,LOU-NH91,0.903
6,ChaGo-K-1,0.698
7,NCI-H2170,0.862
8,NCI-H2405,0.942
9,HOP-62,0.602
10,HCC-44,1.08
11,NCI-H522,0.943
12,LU99A,0.63
13,BEN,0.526
14,HARA,0.565
15,SW 900,0.604
16,HCC-78,0.458

# Same assay, conditions: first compound 2.53 µM
row,Cell Line,relative viability
1,NCI-H2342,0.695
2,NCI-H727,1.12
3,NCI-H1650,0.633
4,NCI-H1993,0.783
5,SW 1573,0.828
6,NCI-H838,0.688
7,LCLC-103H,0.785
8,NCI-H520,0.681
9,NCI-H2126,0.809
10,EMC-BAC-2,0.441
11,NCI-H2085,0.775
12,HCC-366,0.338
13,NCI-H1666,1.07
14,NCI-H596,0.613
15,LK-2,0.263
16,NCI-H2087,0.702
17,SK-MES-1,1.06

row,Cell Line,relative viability
1,H3255,0.846
2,COR-L23,0.449
3,COR-L 105,0.866
4,IA-LM,1.04
5,LOU-NH91,0.865
6,ChaGo-K-1,0.723
7,NCI-H2170,0.914
8,NCI-H2405,1.02
9,HOP-62,0.619
10,HCC-44,1.11
11,NCI-H522,0.999
12,LU99A,0.494
13,BEN,0.599
14,HARA,0.493
15,SW 900,0.611
16,HCC-78,0.437

# Same assay, conditions: first compound 8 µM
row,Cell Line,relative viability
1,NCI-H2342,0.688
2,NCI-H727,1.09
3,NCI-H1650,0.373
4,NCI-H1993,0.788
5,SW 1573,0.519
6,NCI-H838,0.71
7,LCLC-103H,0.859
8,NCI-H520,0.753
9,NCI-H2126,0.851
10,EMC-BAC-2,0.45
11,NCI-H2085,0.702
12,HCC-366,0.328
13,NCI-H1666,0.985
14,NCI-H596,0.649
15,LK-2,0.178
16,NCI-H2087,0.676
17,NCI-H1648,0.479
18,SK-MES-1,1.17
19,H3255,0.754
20,COR-L23,0.599
21,COR-L 105,0.881
22,IA-LM,0.935
23,LOU-NH91,0.639
24,ChaGo-K-1,0.494
25,NCI-H2170,0.784
